# Where two headings read alike, the source gives them in different places.
# Columns and labels:
# Experiment in all cases: MIC on standard strains, standard method of Japan Society of Chemotherapy
# Format in all cases: cell-based
# P. aeruginosa NCTC 10490 = test system: P. aeruginosa NCTC 10490
# Procedure: (§1) Antimicrobial activity of the compounds of the present invention were measured using CTM (cefotiam) and FMOX (flomoxef) as control drugs in accordance with the standard method of Japan Society of Chemotherapy. Of the 25 standard strains used in this test, Staphylococcus aureus 167 and Staphylococcus aureus 195 belong to MRSA.
# (§2) In these tables, drugs tested are shown by the corresponding examples in which they were synthesized.
# A. faecalis ATCC 3750 = test system: A. faecalis ATCC 3750
# Procedure: as §1, §2
# S. aureus 195 = settings: Staphylococcus aureus; S. aureus 195 (MRSA)
# Procedure: as §1, §2
# B. subtilis ATCC 6633 = settings: Bacillus subtilis, ATCC6633, B. subtilis ATCC 6633; read-out: MIC
# Procedure: as §1, §2
# S. aureus 209p JC-1 = test system: S. aureus 209p JC-1
# Procedure: as §1, §2
# M. luteus ATCC 9341 = settings: Micrococcus luteus, ATCC9341
# Procedure: as §1, §2
# A. calcoaceticos T59 = settings: read-out: MIC
# Procedure: as §1, §2
# P. cepacia = settings: Burkholderia cepacia, read-out: MIC
# Procedure: as §1, §2
# S. aureus Smith = test system: S. aureus Smith
# Procedure: as §1, §2
# K. pneuminiae IFO 3317 = test system: K. pneuminiae IFO 3317
# Procedure: as §1, §2
# E. cloacae Nek39 = settings: Enterobacter cloacae, NEK39, E. cloacae Nek39; read-out: MIC
# Procedure: as §1, §2
# S. aureus 167 = settings: Staphylococcus aureus; S. aureus 167 (MRSA)
# Procedure: as §1, §2
# C. freundii ATCC 8090 = settings: Citrobacter freundii, ATCC8090, C. freundii ATCC 8090; read-out: MIC
# Procedure: as §1, §2
# E. coli CSH2(RK1) = settings: Escherichia coli
# Procedure: as §1, §2
# E. cloacae ATCC 13407 = test system: E. cloacae ATCC 13407
# Procedure: as §1, §2
# E. coli CSH2(RE45) = test system: E. coli CSH2(RE45)
# Procedure: as §1, §2
# M. morganii IFO 3848 = settings: Morganella morganii, IFO3848
# Procedure: as §1, §2
# E. coli NHIJ JC-2 = settings: Escherichia coli, NHIJJC2
# Procedure: as §1, §2
# P. vulugaris OX-19 = test system: P. vulugaris OX-19
# Procedure: as §1, §2
# S. marcescens No. 16-2 = settings: Serratia marcescens, NO.162
# Procedure: as §1, §2
# P. aeruginosa AKR17 = settings: Pseudomonas aeruginosa
# Procedure: as §1, §2
# S. marcescens IAM 1184 = test system: S. marcescens IAM 1184
# Procedure: as §1, §2
# K. pneuminiae No. 42 = test system: K. pneuminiae No. 42
# Procedure: as §1, §2
# P. mirabilis IFO 3849 = test system: P. mirabilis IFO 3849
# Procedure: as §1, §2
# S. epidemidis IAM 1296 = test system: S. epidemidis IAM 1296
# Procedure: as §1, §2
# [1] = Pseudomonas aeruginosa, NCTC10490, P. aeruginosa NCTC 10490, read-out: MIC
# [2] = Alcaligenes faecalis, ATCC3750, A. faecalis ATCC 3750, read-out: MIC
# [3] = Staphylococcus aureus, 209P, read-out: MIC
# [4] = Staphylococcus aureus, read-out: MIC
# [5] = Enterobacter cloacae, ATCC13407, E. cloacae ATCC 13407, read-out: MIC
# [6] = Serratia marcescens, IAM1184, S. marcescens IAM 1184, read-out: MIC
# [7] = Proteus mirabilis, IFO3849, P. mirabilis IFO 3849, read-out: MIC
SMILES,MIC (P. aeruginosa NCTC 10490; [1]),MIC (A. faecalis ATCC 3750; [2]),MIC (S. aureus 195),MIC (B. subtilis ATCC 6633),MIC (S. aureus 209p JC-1; [3]),MIC (M. luteus ATCC 9341),MIC (A. calcoaceticos T59),MIC (P. cepacia),MIC (S. aureus Smith; [4]),MIC (K. pneuminiae IFO 3317),MIC (E. cloacae Nek39),MIC (S. aureus 167),MIC (C. freundii ATCC 8090),MIC (E. coli CSH2(RK1)),MIC (E. cloacae ATCC 13407; [5]),MIC (E. coli CSH2(RE45); Escherichia coli),MIC (M. morganii IFO 3848),MIC (E. coli NHIJ JC-2),MIC (P. vulugaris OX-19),MIC (S. marcescens No. 16-2),other results
"NC(=NO)c1ccc[n+](CC2=C(C(=O)[O-])N3C(=O)[C@@H](NC(=O)/C(=N\O)c4csc(N)n4)[C@H]3SC2)c1 [Ex. 19, 7β-[2-(2-aminothiazol-4-yl)-2-syn-hydroxyiminoacetamido]-3-[3-(1-amino-1-hydroxyiminomethyl)pyridinio]methyl-3-cephem-4-carboxylate]",3.13 µg/mL,3.18 µg/mL,1.56 µg/mL,0.39 µg/mL,0.2 µg/mL,0.1 µg/mL,6.25 µg/mL,> 100 µg/mL,0.39 µg/mL,0.2 µg/mL,50 µg/mL,6.25 µg/mL,0.39 µg/mL,0.78 µg/mL,3.13 µg/mL,0.39 µg/mL,0.2 µg/mL,0.39 µg/mL,0.39 µg/mL,100 µg/mL,MIC (P. aeruginosa AKR17): > 100 µg/mL; MIC (S. marcescens IAM 1184; [6]): 0.2 µg/mL; MIC (K. pneuminiae No. 42): 0.78 µg/mL; MIC (P. mirabilis IFO 3849; [7]): 0.39 µg/mL; MIC (S. epidemidis IAM 1296): 0.1 µg/mL
"NC(=NO)c1cc[n+](CC2=C(C(=O)[O-])N3C(=O)[C@@H](NC(=O)/C(=N\O)c4csc(N)n4)[C@H]3SC2)cc1 [Ex. 20, 7β-[2-(2-aminothiazol-4-yl)-2-syn-hydroxyiminoacetamido]-3-[4-(1-amino-1-hydroxyiminomethyl)pyridinio]methyl-3-cephem-4-carboxylate]",0.78 µg/mL,0.78 µg/mL,3.31 µg/mL,0.2 µg/mL,0.2 µg/mL,0.025 µg/mL,6.25 µg/mL,> 100 µg/mL,0.39 µg/mL,0.1 µg/mL,50 µg/mL,6.25 µg/mL,0.2 µg/mL,0.39 µg/mL,12.5 µg/mL,0.2 µg/mL,0.1 µg/mL,0.2 µg/mL,0.2 µg/mL,100 µg/mL,MIC (P. aeruginosa AKR17): > 100 µg/mL; MIC (S. marcescens IAM 1184; [6]): 0.1 µg/mL; MIC (K. pneuminiae No. 42): 0.39 µg/mL; MIC (P. mirabilis IFO 3849; [7]): 0.2 µg/mL; MIC (S. epidemidis IAM 1296): 0.05 µg/mL
"CN(C)CCn1nnnc1SCC1=C(C(=O)O)N2C(=O)[C@@H](NC(=O)Cc3csc(N)n3)[C@H]2SC1 [CTM, cefotiam, reference compound]",> 100 µg/mL,6.25 µg/mL,> 100 µg/mL,0.39 µg/mL,1.56 µg/mL,0.39 µg/mL,> 100 µg/mL,> 100 µg/mL,1.56 µg/mL,0.2 µg/mL,> 100 µg/mL,> 100 µg/mL,0.78 µg/mL,0.2 µg/mL,50 µg/mL,0.2 µg/mL,0.2 µg/mL,0.2 µg/mL,0.39 µg/mL,> 100 µg/mL,MIC (P. aeruginosa NCTC 10490; P. aeruginosa NCTC 10490): 100 µg/mL; MIC (A. faecalis ATCC 3750; A. faecalis ATCC 3750): 3.13 µg/mL; MIC (S. aureus 209p JC-1): 0.78 µg/mL; MIC (S. aureus Smith): 0.78 µg/mL; MIC (E. cloacae ATCC 13407; E. cloacae ATCC 13407): >100 µg/mL; MIC (E. coli CSH2(RE45)): 0.39 µg/mL; MIC (P. aeruginosa AKR17): > 100 µg/mL; MIC (S. marcescens IAM 1184; S. marcescens IAM 1184): 3.13 µg/mL; MIC (S. marcescens IAM 1184; [6]): 6.25 µg/mL; MIC (K. pneuminiae No. 42): 0.39 µg/mL; MIC (P. mirabilis IFO 3849; P. mirabilis IFO 3849): 0.39 µg/mL; MIC (P. mirabilis IFO 3849; [7]): 0.78 µg/mL; MIC (S. epidemidis IAM 1296): 0.39 µg/mL
"Nc1nc(/C(=N/O)C(=O)N[C@@H]2C(=O)N3C(C(=O)[O-])=C(C[n+]4ccc(-c5nnco5)cc4)CS[C@H]23)cs1 [Ex. 18, 7β-[2-(2-aminothiazol-4-yl)-2-syn-hydroxyiminoacetsmido]-3-[4-(1,3,4-oxadiazol-2-yl)pyridinio]methyl-3-cephem-4-carboxylate]",12.5 µg/mL,1.56 µg/mL,12.5 µg/mL,0.78 µg/mL,0.78 µg/mL,0.2 µg/mL,25 µg/mL,> 100 µg/mL,1.56 µg/mL,0.2 µg/mL,> 100 µg/mL,25 µg/mL,0.39 µg/mL,6.25 µg/mL,50 µg/mL,0.39 µg/mL,0.05 µg/mL,0.2 µg/mL,0.2 µg/mL,> 100 µg/mL,MIC (P. aeruginosa AKR17): > 100 µg/mL; MIC (S. marcescens IAM 1184; [6]): 0.39 µg/mL; MIC (K. pneuminiae No. 42): 1.56 µg/mL; MIC (P. mirabilis IFO 3849; [7]): 0.2 µg/mL; MIC (S. epidemidis IAM 1296): 0.39 µg/mL
